A melting point compilation (Tetko et al.; mined from patent text by program, amines drawn as free bases though some values may be those of a salt)

SMILES	melting point
CC1OC(Cn2cncn2)(c2ccc(Cl)cc2Cl)OC1C (single isomer, unassigned; (-))	82.5 °C
CCC(C)C(C)C(=O)Nc1ccc2ncnc(NC=C(C(=O)OC)C(=O)OC)c2c1 (stereo not given)	216 to 217 °C
O=C(O)C(=O)NCCC(F)=C(F)F	95 to 100 °C
CNC(=O)OC1c2ccccc2C(=O)N1c1ccc2ccc(Cl)nc2n1 (stereo not given)	260 °C
Cc1c(C)c2c(c(C)c1OC=O)SC(CCCI)O2 (stereo not given)	91 to 93 °C
COc1cccc(Oc2c(NS(=O)(=O)c3ccc(C(C)(C)C)cc3)ncnc2OCCOc2ncc(C(C)O)cn2)c1 (stereo not given)	133 to 135 °C
COc1ccc(N(CC(=O)OC(C)(C)C)C(=O)CNC(=O)Nc2cccc(C)c2)cc1	158 °C
CSCc1nn(CCC#N)c(O)c1C	98 °C
COc1cc2c(Nc3ccc(Cl)cc3F)c(C#N)cnc2c(OC)c1OC	166 to 168 °C
COC(=O)CCCCCOc1ccc(NC(=O)CO)cc1	91.5 to 94 °C
CC(=O)OCC1OC(n2c(Cl)nc3ccc(Cl)cc32)C(OC(C)=O)C1OC(C)=O (stereo not given)	155 to 157 °C
CN1C(=O)c2c(Cl)cc(Cl)c(Cl)c2C1=O	166 to 168 °C
O=C(O)CCC(=O)OCCn1ccnc1	108 to 110 °C
NS(=O)(=O)c1ccc(CCN2CC=C(c3c[nH]c(-c4ccc(F)cc4)c3-c3ccncc3)CC2)cc1	220 to 221 °C
O=c1[nH]c(=O)n(C2CC(Br)C(CBr)O2)cc1C=CBr (stereo not given)	153 °C
CCC1(CC)C(=O)c2cc(OCC(=O)O)c(C)c(C)c2C1=O	134 to 136 °C
c1cnn(-c2cc(-n3cccn3)ncn2)c1	133 to 134 °C
Cc1ccc(NC(=O)c2ccc(CN3CCOCC3)c(C(F)(F)F)c2)cc1-c1ccc2cnncc2c1	160 to 162 °C

SMILES	melting point
Cc1cc(C)cc(C(=O)N2CCN(C(=O)CN(CCO)C3CCN(Cc4ccccc4)CC3)C(c3ccc(Cl)c(Cl)c3)C2)c1 (racemic)	70 to 73 °C
CCc1nc2c(N)nc3cc(OCCCOc4ccc5c(c4)nc(N)c4nc(CC)sc45)ccc3c2s1	242 to 243 °C
COc1cc2cc(C(=O)Nc3cc(NC(=O)OCc4ccccc4)c4ccccc4c3CCCl)[nH]c2c(OC)c1OC	58 to 62 °C
CC(C)(C)n1ncc(S)c(Br)c1=O	107 to 110 °C
O=C(O)Cc1ccc(Oc2ccc([N+](=O)[O-])cc2)cc1	132 to 136 °C
COCOc1cc(OC)c(OC)cc1-c1c(C(=O)OC)[nH]c(C(=O)OC)c1-c1ccc(OC)c(OC)c1	162 to 163 °C
CCC1C(O)C2C3CCC(C(C)CCC(=O)O)C3(C)CCC2C2(C)CCC(O)CC12 (stereo not given)	110 °C
Cc1nn(C2CCOC2)c(N)c1C#N (stereo not given)	134 to 135 °C
COc1cccc(C2(c3cccc(OC)c3)CC2C=CC(=O)NC(C)CCCc2ccncc2)c1 (single isomer, unassigned)	104 to 106 °C
COc1cc2c(cc1O)C(=O)C1c3c(cc(OC(C)C)c(OC)c3-2)CCN1C (stereo not given)	240 to 242 °C
CCCCCCCCCCCCS(=O)(=O)CCOc1ccc(C/C=C(\OC(=O)CC)C(F)(F)F)cc1	60 to 63 °C
CCS(=O)(=O)Nc1cc(-c2ncnc(C(F)F)c2Cl)c(Cl)cc1Cl	140 to 142 °C
CC(=O)NC1C2CC(=O)CC1C(N)=C(O)C2=O (stereo not given)	> 280 °C
CN1C(=O)[C@H](NC(=O)Nc2ccc3c(c2)CCC3)N=C(c2ccccc2)c2ccccc21	156 to 158 °C
COc1cc(F)c(C(=O)CCCCCBr)cc1OC	81 to 83 °C
COC(=O)Nc1cc(=O)[nH]c(N)n1	186 to 188 °C
COCCNC(=O)c1cc2c(ccc3cnn(C[C@H](C)N)c32)o1	75 to 76 °C
C=CCOc1cc2c(cc1C)OC1(CC2(C)C)CC(C)(C)c2cc(OCC=C)c(C)cc2O1	98 to 100 °C

The next lines start with the values.

melting point	SMILES
185 to 187 °C	CNc1ncnc(N2CCc3ccccc32)n1
218 °C	Cc1ccc2nc3ccc(=O)c(Cl)c-3sc2c1
220 to 222 °C	Cc1cc(C)n2nc(S(=O)(=O)N(C)c3c(Cl)cccc3Cl)nc2n1
138 to 139 °C	O=Cc1cccc(C(CC2=NCCN2)c2ccccn2)c1 (stereo not given)
312 to 314 °C	COc1ccc(-c2c(O)c3ccc(Cl)cc3[nH]c2=O)cc1OC
245 to 247 °C	c1cnc(N2CCN(Cc3ccc4c(c3)Cc3c(-c5ccsc5)n[nH]c3-4)CC2)nc1
136 °C	CN1CCC(C(=O)OC2c3ccccc3C(=O)N2c2ccc3ccc(Cl)nc3n2)CC1 (stereo not given)
113 to 128 °C	CCC1Oc2ccc(CN3CCN(c4ccncc4)CC3)cc2NC1=O (stereo not given)
166 to 168 °C	c1ccc(-c2nnc3cc(C45CCC(CC4)C5)c(OCc4ccccn4)nn23)cc1
147 to 149 °C	COc1ccccc1C(=O)Nc1cc(C)ccc1C#N
101 to 104 °C	O=C1OC(CCI)C(O)=C1OCc1ccccc1 (stereo not given)
115 to 116 °C	CCOC(=O)C1CCc2c(oc3cc(NC(C)=O)ccc23)C1 (stereo not given)
163 to 164 °C	CC1(C)CC(=C(c2ccc(O)cc2)c2ccc(OCC(=O)O)cc2)CC(C)(C)C1
236 to 240 °C	COC(=O)c1ccc2c(c1)CN(c1c(F)cc3c(=O)c(C(=O)O)cn(-c4ccc(F)cc4)c3c1F)C2
352 to 357 °C	CC(C)(C)C(=O)Oc1n[nH]c(=O)c2nc3cc(Cl)ccc3c(O)c12
115 to 116 °C	CCCCCCCCCCCCCc1c(C(F)(F)F)noc1NS(=O)(=O)c1ccc(-c2ccccc2)cc1
177 °C	NC(=O)CC12CCCCC1CCc1ccccc12 (stereo not given)

melting point	SMILES
70 to 72 °C	CN(C)C(=O)CC(c1ccc(OC(F)F)c(OCC2CC2)c1)N1Cc2cccc(N)c2C1=O (stereo not given)
> 260 °C	Cc1ccc(NC(=O)N(C)Cc2cccc3c2C(=O)N(C2CCC(=O)NC2=O)C3=O)cc1 (stereo not given)
104 to 106 °C	Brc1ccc(OCc2ccc3ccccc3c2)cc1
195 to 197 °C	CCN1C2=C(CSC2)C(=O)Nc2ccccc21
172 to 175 °C	N#Cc1ccc(CN(O)Cc2ccc(C#N)cc2)cc1
267 to 268 °C	O=C1CCC(c2ccc(NC(=O)C3CC3(Cl)Cl)cc2)=NN1 (stereo not given)
86.1 to 88.3 °C	O=C(O)CCc1ccc2c(c1)OCO2
79 to 81 °C	CCN(CC)C(=O)Nc1c(C)c(C)c2c(c1C)C(c1ccc(C(C)C)cc1)CO2 (stereo not given)
108 to 109 °C	CNC1CCN(c2ncc(C(F)(F)F)s2)C1=O (stereo not given)
106 °C	NS(=O)(=O)c1cc(CCNC(=O)C=Cc2cccs2)ccc1OCC1CCCCO1 (stereo not given)
134 to 136 °C	COC(=O)C(Oc1cc(OCc2ccccc2)ccc1C#N)c1ccccc1C (racemic)
208 to 210 °C	COc1ccc(Cn2c(=O)ccc3cnc(Cl)cc32)cc1Cl
225 to 226 °C	COc1ccc(NS(=O)(=O)c2cc3cc(Cl)ccc3oc2=O)cc1O
185 to 186 °C	CCOC(=O)C(Cl)=Cc1cc(NC(=O)C2=C(C(N)=O)CCCC2)ccc1Cl
108 to 110 °C	Cc1cc(C2(C(F)(F)F)CC(c3ccc(F)cc3)=NO2)ccc1N (stereo not given)
206 to 208 °C	CC(=O)c1nc(N)nc(N)c1-c1ccc(Cl)cc1
168 to 169 °C	N#Cc1c(N2CCCCC2)cc(-c2ccc3ccc4cccc5ccc2c3c45)c2c1Cc1ccccc1-2
